# Measurements as given in paper PMC10366102, “Dose escalation and expansion cohorts in patients with advanced breast cancer in a Phase I study of the CDK7-inhibitor samuraciclib” (Nature Communications, 2023).
# Values joined by “and” are separate entries in the source; they are usually repeats but may differ in a detail not shown here. Equal entries are not always repeated. Where two headings read alike, the source gives them in different places.
# Experiments:
# [1] = design: method as in ref IB; conditions: rat microsomes; ref IB; cited from earlier work
# dogs = conditions: cited from earlier work; for AUC0-t: Dog, 20 mg/kg/day oral, ref IB
# [2] = test system: advanced solid malignancies; assay: Module 1A anti-tumor activity (RECIST V1.1, PSA); assay type: in vivo, human
# Excerpt: (§1) treatment RECIST assessment. […]
# (§2) number of patients in the particular analysis population. Duration of response (DoR) was defined as the time from documentation of tumor response to disease progression. Progression-free survival (PFS) was […]
# (§3) cause, whichever occurred first. Efficacy results were summarized descriptively and Kaplan -Meier plots provided where appropriate. […]
# [3] = test system: peripheral blood mononucleated cells; assay: Antibody validation, flow cytometry of cells treated ex vivo, RNA pol II pSer5; assay type: cell-based, human
# Experimental: SUPPLEMENTARY TABLE 12: ANTIBODIES USED
# Antibody Application Supplier & Description Dilution/ Validation […]
# RNA pol II Immunohistoche Abcam Rabbit Immuno- Immunohistochemistry: pSer5 mistry (Fig 3); ab193467 monoclonal histochemistry: Positive nuclear staining Flow cytometry [EPR19015] to 1 in 8000 in normal spleen
# (Supplementary RNA 0.02 µg/mL samples. Significant
# Figure 5) polymerase II reduction in staining in CTD repeat Flow cytometry: MCF7 cell line treated
# YSPTSPS 1 in 100 with samuraciclib. […]
# intensity of labelling in […]
# pCDK1/2/ Immunohistoche Abcam Rabbit 1 in 500 Immunohistochemistry:
# 3 mistry (Fig 3) ab201008 monoclonal 1.2 μg/mL Positive nuclear staining [EPR19546] to in normal tonsil samples.
# T161) + CDK2 staining in MCF7 cell
# (phospho T160) line treated with
# Goat anti- Flow cytometry Abcam Polyclonal goat 1 in 1000 Flow cytometry: No Rabbit IgG (Supplementary ab150077 anti-rabbit IgG 2.0 μg/mL significant binding to H&L Figure 5) H&L peripheral blood
# AlexaFluor conjugated to mononucleated cells in 488 AlexaFluor 488 absence of primary
# Han Wistar rats = conditions: rats 15 or 60 mg/kg/day and beagle dogs 20 mg/kg/day, 7 days; ref IB; cited from earlier work
# [4] = test system: patient-derived xenograft models of TNBC; design: method as in Bahl et al, 2017; conditions: ref Bahl et al, 2017; cited from earlier work
# CYP3A4 = test system: CYP3A4; design: method as in ref IB; conditions: human microsomes; ref IB; cited from earlier work
# [5] = test system: tumour cell lines, including TNBC; design: method as in ref Patel et al, 2018 Ainscow et al, 2018; Clark et al, 2017, Ali et al, 2018; conditions: wide range of tumour cell lines, ref Patel et al, 2018 Ainscow et al, Clark et al, 2017, Ali et al; cited from earlier work
# [6] = test system: HR+/HER2− advanced breast cancer; assay: Module 2A anti-tumor activity (RECIST V1.1, PFS, ctDNA subgroups); assay type: in vivo, human
# Experimental: A single-arm, ascending-dose study was conducted in 2 cohorts to explore the recommended dose of samuraciclib and fulvestrant in HR+/HER2− advanced breast cancer patients who had previously received, and become resistant to, a CDK4/6 inhibitor. Female patients with histologically confirmed diagnosis of breast cancer, evidence of metastatic or locally advanced disease, and documented ER+ and/or PgR+ and HER2- tumor status treated with an AI in combination with a CDK4/6i before study entry were eligible. In each cohort the dose of fulvestrant was 500 mg every 28 ± 2 days, with an additional 500 mg dose given 14 ± 2 days after the first dose. Cohort 1 tested samuraciclib 240 mg OD continuous dosing. If the DLT stopping criteria were not met, Cohort 2 commenced enrollment at the Module 1A MTD. Patients underwent regular safety monitoring and 8-week scans reported using RECIST V1.1[32].
# Per-protocol ctDNA samples were taken in Module 1B-1 at screening, C1D1, C2D1 and on D1 of alternating cycles from Cycle 3; in Module 2A at screening, C1D1 and at either C2D1 (240 mg) or C2D15 (360 mg) for mutational analysis[24],[33], (Supplementary Information). pPolII in lymphocytes and pPolII and pCDK1/2/3 in core needle tissue samples from patients recruited to the paired biopsy cohort were evaluated for on-target pharmacodynamic analyses. […]
# as §1, §2, §3
# CYP2C19 = test system: CYP2C19; design: method as in ref IB; conditions: human microsomes; ref IB; cited from earlier work
# [7] = design: method as in ref IB; conditions: human microsomes and hepatocytes in vitro; ref IB; cited from earlier work
# [8] = design: method as in ref IB; conditions: ref IB; cited from earlier work
# rats = test system: rats; design: method as in ref IB; conditions: ref IB; cited from earlier work
# Ames test strains = test system: Ames test strains; design: method as in ref IB; conditions: up to the lower limit of toxicity; ref IB; cited from earlier work
# [9] = Module 1A, 36 evaluable patients
# [10] = two castrate-resistant prostate cancer patients
# [11] = Module 2A N = 25, + fulvestrant
# [12] = Module 2A, 25 evaluable, + fulvestrant
# [13] = Module 2A, Liver metastases (N = 14)
structure (smiles),measurement,setting,value
"CC(C)c1cnn2c(NCc3ccccc3)cc(NC[C@H]3CCNC[C@@H]3O)nc12 [samuraciclib, Samuraciclib]",Intrinsic clearance,[1],high
same,AUC0-t,dogs; Female,5010 ng·h/mL
same,AUC0-t,dogs; Male,3880 ng·h/mL
same,Highest non-severely toxic dose (HNSTD),"dogs; dog, in vivo",20 mg/kg/day
same,Best change in lesion size on CT scan,"[2]; 1 colorectal cancer patient, 120 mg",-21%
same,Decline in cancer antigen CA 15-3,"[2]; 1 patient with HR-positive BC, interim",30%
same,Decline in PSA,"[2]; 2/2 patients with castrate-refractory prostate cancer, interim, listed as CT7001",45% and 30%
same,Best objective response: Complete response,[2]; Module 1A N = 36,0 n (%)
same,Best objective response: Partial response,[2]; Module 1A N = 36,1 (2.8) n (%)
same,Best objective response: Progressive disease,[2]; Module 1A N = 36,17 (47.2) n (%)
same,Disease control rate,[2]; Module 1A N = 36,19 (52.8) n (%)
same,Disease control rate,[2]; [9],53% and 52.8%
same,Patients maintaining stable disease ≥ 12 weeks,[2]; [9],38.9%
same,Reduction in PSA compared to baseline,[2]; [10],28% and 44%
same,RNA pol II pSer5 intensity of labelling,[3],Significant reduction in
same,Reticulocyte numbers,Han Wistar rats,significant decrease
same,Activity in vivo,[4],encouraging activity
same,Cell growth inhibition,[5],broad activity
same,Patients with PR persisting ≥24 weeks,[6]; Module 2A,2 patients
same,Patients with SD persisting ≥24 weeks,[6]; Module 2A,7 patients
same,"Progression-free survival, median (95% confidence interval)","[6]; Module 2A ITT N = 31, + fulvestrant","3.7 months and 3.7 (1.8, 7.4) months"
same,Best objective response: Complete response,[6]; [11],0 n (%)
same,Best objective response: Partial response,[6]; [11],3 (12.0) n (%)
same,Best objective response: Progressive disease,[6]; [11],9 (36.0) n (%)
same,Best objective response: Stable disease,[6]; [11],13 (52.0) n (%)
same,Clinical benefit rate at 24 weeks,[6]; [11],9 (36.0) n (%)
same,Objective response rate,[6]; [11],3 (12.0) n (%)
same,"Clinical benefit rate at 24 weeks, overall","[6]; Module 2A, 9/25, + fulvestrant",36.0%
same,Best RECIST response PR,[6]; [12],12.0%
same,Best RECIST response SD,[6]; [12],52.0%
same,Patients achieving PR,"[6]; Module 2A, + fulvestrant",3 patients
same,Clinical benefit rate at 24 weeks,[6]; [13],3 (21.4) n (%)
same,"Progression-free survival, median (95% CI)",[6]; [13],"2.8 months and 2.8 (1.8, 7.4) months"
same,Clinical benefit rate at 24 weeks,"[6]; Module 2A, No TP53 mutation (N = 19)",9 (47.4) n (%)
same,"Progression-free survival, median (95% CI)","[6]; Module 2A, No TP53 mutation (N = 20)","7.4 months and 7.4 (3.7, NC) months"
same,Clinical benefit rate at 24 weeks,"[6]; Module 2A, No liver metastases (N = 11)",6 (54.5) n (%)
same,"Progression-free survival, median (95% CI)","[6]; Module 2A, No liver metastases (N = 17)","13.8 months and 13.8 (7.4, NC) months"
same,Clinical benefit rate at 24 weeks,"[6]; Module 2A, TP53 mutation (N = 6)",0 n (%)
same,Clinical benefit rate at 24 weeks,"[6]; Module 2A, TP53 mutation group n = 6",0%
same,Clinical benefit rate at 24 weeks,"[6]; Module 2A, liver metastases, 3/14",21.4%
same,Clinical benefit rate at 24 weeks,"[6]; Module 2A, no detectable TP53 mutation, 9/19",47.4%
same,Clinical benefit rate at 24 weeks,"[6]; Module 2A, no liver metastases, 6/11",54.5%
same,Metabolic stability,[7],metabolically stable
same,Phototoxicity,[8],not phototoxic
same,Effects on CNS (Irwin) and respiratory systems,rats,No significant effects
same,Mutations in five strains Ames test,Ames test strains,no mutations
